Experimental data taken from US12545699B2, “Bivalent LECA inhibitors targeting biofilm formation of Pseudomonas aeruginosa” (HELMHOLTZ-ZENTRUM FÜR INFEKTIONSFORSCHUNG GMBH, priority 2019, dated 2026).

Key:
LecA [1] = molecular target: T1, LecA (Pseudomonas aeruginosa, UniProt Q05097); assay: isothermal titration microcalorimetry (ITC); assay type: binding; details: 25° C.
T1 construct: made in house
Method: Expression and purification of LecA as well as competitive binding by fluorescence polarization was performed as described by Joachim et al. (Org. Biomol. Chem. 2016). Microcalorimetry was performed using an ITC200 (GE Healthcare) at highest possible LecA concentration (typically 200-400 μM) in the cell and titration of ligand in the same buffer at 25° C.

LecA [2] = molecular target: T1, LecA; assay: competitive binding assay based on fluorescence polarisation (FP)
Method: Binding of ligands to LecA was evaluated in competitive assay based on fluorescence polarisation.

LecA [3] = molecular target: T1, LecA; assay: surface plasmon resonance (SPR) direct binding to immobilised LecA
Method: All experiments were performed on a BIACORE X100 instrument (GE Healthcare) at 25° C. and a flow rate of 10 μL min^−1. […] LecA was dissolved in 10 mM sodium acetate pH 4.5 (100 μg mL^−1) and injected over the activated chip surface on channel 2 (contact time of 540 s) until the response of ˜4000 RU was reached. Excess free amine groups were capped with an injection of 1 M ethanolamine (contact time 540 s). Bivalent compounds were dissolved in 100% DMSO and subsequently diluted to required concentrations in a running buffer (10 mM phosphate buffer pH 7.4, 2.7 mM KCl, 137 mM NaCl, 100 μM CaCl2, 0.05% Tween 20, 5% DMSO). The bivalent analytes were subjected to single-cycle kinetics analyses (contact time of 120 s and dissociation time of 120 s) consisting of injections of the analytes at 0, 10, 50, 100, and 200 nM over the immobilised-LecA. The chip surface was regenerated by 5× injections of 100 μM 4-nitrophenyl-β-D-galactose (contact time of 120 s). KD determination was performed using BIACORE X100 evaluation software (version 2.0) by applying 1:1 binding model to fit the experimental data. • [1] H. E. Gottlieb, V. Kotlyar, A. Nudelman, J. Org. Chem. 1997, 62, 7512-7515. • [2] M. Seligman, J. Biol. Chem. 1952, 195, 239-249. • [3] S. T. Xue, W. Y. He, L. L. Ma, H. Q. Wang, B. Wang, G. H. Zheng, X. Y. Ji, T. Zhang, Y. H. Li, J. D. Jiang, et al., Molecules 2013, 18, 3789-3805. • [4] Y. Li, H. Mo, G. Lian, B. Yu, Carbohydr. Res. 2012, 363, 14-22. • [5] F. Yang, F. Xie, Y. Zhang, Y. Xia, W. Liu, F. Jiang, C. Lam, Y. Qiao, D. Xie, J. Li, et al., Bioorganic Med. Chem. Lett. 2017, 27, 2166-2170. Synthesis Schemes and Results of Biophysical Assays

[4] = Table 5, ITC, 100 μM LecA, 0.5 mM 35, TBS/Ca2+ buffer
[5] = Table 5, ITC, 110 μM LecA, 1 mM 35, TBS/Ca2+ buffer
[6] = ITC Kd, Table 1, TBS/Ca2+ buffer

T1 sequence (Q05097 whole entry): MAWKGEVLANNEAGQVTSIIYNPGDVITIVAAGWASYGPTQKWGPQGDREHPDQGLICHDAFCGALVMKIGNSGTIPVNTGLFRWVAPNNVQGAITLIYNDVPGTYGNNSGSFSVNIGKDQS

In the case of `N.N.O=C(CCc1ccc(O[C@@H]2OC(CO)[C@H](O)C(O)C2O)cc1)Nc1ccc(CCc2ccc(NC(=O)CCc3ccc(O[C@@H]4OC(CO)[C@H](O)C(O)C4O)cc3)cc2S(=O)(=O)O)c(S(=O)(=O)O)c1` (stereo partly drawn) [Compound 35], the Kd (LecA [1]; Kd, Table 5, ITC, 100 μM LecA, 0.5 mM 35, TBS/Ca2+ buffer) is reported as 0.081 µM, the Kd (LecA [1]; Kd, Table 5, ITC, 110 μM LecA, 1 mM 35, TBS/Ca2+ buffer) is reported as 0.146 µM and the “N (ITC stoichiometry)” value (LecA [1]; [4]) is reported as 0.55. The ΔH (LecA [1]; [4]) was -19.2 kcal/mol, the ΔS (LecA [1]; [4]) was −31.8 cal/mol/deg and the “N (ITC stoichiometry)” value (LecA [1]; [5]) was 0.54. It also gave a ΔH (LecA [1]; [5]) of -19.5 kcal/mol, a ΔS (LecA [1]; [5]) of −34.3 cal/mol/deg and an IC50 (LecA [2]; IC50, Table 3, TBS/Ca2+ buffer in presence of 25% DMSO) of 4 ± 2.4 µM.

With `COc1ccc(C=NNC(=O)c2cccc(OC3OC(CO)C(O)C(O)C3O)c2)cc1` (stereo not drawn) [Compound F6m] the Kd (LecA [3]) was 4.9 ± 0.1 µM, the Kd (LecA [1]; [6]) was 2.4 ± 1.33 µM and the IC50 (LecA [2]; FP IC50, Table 1, 20 μM LecA, 10 nM reporter ligand 8, TBS/Ca2+ buffer with 25% DMSO (**)) was 21.6 ± 4.5 µM.

In the case of `COc1ccc(C=NNC(=O)c2ccc(OC3OC(CO)C(O)C(O)C3O)cc2)cc1` (stereo not drawn) [Compound F6p], the Kd (LecA [3]) is reported as 4.8 ± 2.1 µM, the Kd (LecA [1]; [6]) is reported as 6.11 ± 0.48 µM and the IC50 (LecA [2]; FP IC50, Table 1, 20 μM LecA, 10 nM reporter ligand 8, TBS/Ca2+ buffer with 4% DMSO (*)) is reported as 23.1 µM.
